The text below walks through data of patent publication US10610520B2, “Heterocyclic compound” (Takeda Pharmaceutical Company Limited, priority 2016, dated 2020).

The target in the experiment is T1, His-hMAGL (recombinant polyhistidine tagged human MAGL protein) (Homo sapiens, UniProt Q99685).
T1 construct: made in house; host or cells: E. coli BL21(DE3)
T1 sequence (Q99685 1-303): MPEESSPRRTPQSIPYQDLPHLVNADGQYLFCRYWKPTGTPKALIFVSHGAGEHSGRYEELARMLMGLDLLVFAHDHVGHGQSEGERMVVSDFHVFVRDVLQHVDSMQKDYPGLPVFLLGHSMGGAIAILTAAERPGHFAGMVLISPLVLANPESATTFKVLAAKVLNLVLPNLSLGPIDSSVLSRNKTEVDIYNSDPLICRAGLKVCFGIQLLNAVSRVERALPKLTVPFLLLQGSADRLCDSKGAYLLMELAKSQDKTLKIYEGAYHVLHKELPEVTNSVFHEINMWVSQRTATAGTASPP
Put plainly: Measurement of MAGL inhibitory activity (arachidonic acid production from 2-arachidonylglycerol, RapidFire-mass spectrometry). In kind it is biochemical. Conditions: MAGL inhibitory rate, test compound 10 μM, 60 min preincubation, 2-arachidonylglycerol substrate. In short, it runs like this: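 Arachidonic acid formed was quantified by online solid-phase extraction and triple-quadrupole MS in negative SRM mode against a d8 internal standard. Reaction: recombinant His-hMAGL (7.5 ng/mL, pH 7.5 Tris buffer with Triton X-100 and BSA) plus 2-AG (5 μL of 150 μM stock) for 10 min at room temperature, quenched with 2% formic acid. Percent inhibition corrected for enzyme-free background.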

In the case of `O=C1CCC2(CN(C(=O)c3ccc(-c4cc(F)ccc4Cl)cc3)C2)N1` [Example 79, 2-((2′-chloro-5′-fluorobiphenyl-4-yl)carbonyl)-2,5-diazaspiro[3.4]octan-6-one], the inhibition (in general, the relative decrease from the control value, in per cent) at 10 µM is 92%.
For the compound `O=C1CCC2(CN(C(=O)c3ccc(-c4cc(Cl)ccc4Cl)cc3)C2)N1` [Example 80, 2-((2′,5′-dichlorobiphenyl-4-yl)carbonyl)-2,5-diazaspiro[3.4]octan-6-one], the inhibition at 10 µM was found to be 98%.
The value for `Cc1ccc(Cl)c(-c2ccc(C(=O)N3CC4(CCC(=O)N4)C3)cc2)c1` [Example 81, 2-((2′-chloro-5′-methylbiphenyl-4-yl)carbonyl)-2,5-diazaspiro[3.4]octan-6-one] was 94%; that for `COc1ccc(Cl)c(-c2ccc(C(=O)N3CC4(CCC(=O)N4)C3)cc2)c1` [Example 82, 2-((2′-chloro-5′-methoxybiphenyl-4-yl)carbonyl)-2,5-diazaspiro[3.4]octan-6-one] was 93%.
With `Cc1ccc(-c2ccc(C(=O)N3CC4(CCC(=O)N4)C3)cc2)c(Cl)c1` [Example 83, 2-((2′-chloro-4′-methylbiphenyl-4-yl)carbonyl)-2,5-diazaspiro[3.4]octan-6-one], the inhibition at 10 µM came out at 96%.
Consider `O=C1CCC2(CN(C(=O)c3ccc(-c4ccc(Cl)cc4Cl)cc3)C2)N1` [Example 84, 2-((2′,4′-dichlorobiphenyl-4-yl)carbonyl)-2,5-diazaspiro[3.4]octan-6-one], for which the inhibition at 10 µM came to 101%.
The value for `COc1ccc(-c2ccc(C(=O)N3CC4(CCC(=O)N4)C3)cc2)c(Cl)c1` [Example 85, 2-((2′-chloro-4′-methoxybiphenyl-4-yl)carbonyl)-2,5-diazaspiro[3.4]octan-6-one] was 94%.
The value for `O=C1CCC2(CN(C(=O)c3ccc(-c4cccc(Cl)c4)cc3)C2)N1` [Example 86, 2-((3′-chlorobiphenyl-4-yl)carbonyl)-2,5-diazaspiro[3.4]octan-6-one] was 97%.
With `O=C1CCC2(CN(C(=O)c3ccc(-c4ccc(Cl)cc4)cc3)C2)N1` [Example 87, 2-((4′-chlorobiphenyl-4-yl)carbonyl)-2,5-diazaspiro[3.4]octan-6-one], the inhibition at 10 µM came to 98%.
The value for `Cc1ccc(-c2ccc(C(=O)N3CC4(CCC(=O)N4)C3)cc2)c(C)c1` [Example 88, 2-((2′,4′-dimethylbiphenyl-4-yl)carbonyl)-2,5-diazaspiro[3.4]octan-6-one] was 98%; that for `Cc1cccc(-c2ccc(C(=O)N3CC4(CCC(=O)N4)C3)cc2)c1C` [Example 89, 2-((2′,3′-dimethylbiphenyl-4-yl)carbonyl)-2,5-diazaspiro[3.4]octan-6-one] was 96%; that for `Cc1ccc(C)c(-c2ccc(C(=O)N3CC4(CCC(=O)N4)C3)cc2)c1` [Example 90, 2-((2′,5′-dimethylbiphenyl-4-yl)carbonyl)-2,5-diazaspiro[3.4]octan-6-one] was 92%.
With `Cc1c(F)ccc(F)c1-c1ccc(C(=O)N2CC3(CCC(=O)N3)C2)cc1` [Example 91, 2-((3′,6′-difluoro-2′-methylbiphenyl-4-yl)carbonyl)-2,5-diazaspiro[3.4]octan-6-one], the inhibition at 10 µM was 90%.
The value for `Cc1cc(C(F)(F)F)ccc1-c1ccc(C(=O)N2CC3(CCC(=O)N3)C2)cc1` [Example 92, 2-((2′-methyl-4′-(trifluoromethyl)biphenyl-4-yl)carbonyl)-2,5-diazaspiro[3.4]octan-6-one] was 96%; that for `Cc1cc(C)c(-c2ccc(C(=O)N3CC4(CCC(=O)N4)C3)cc2)c(C)c1` [Example 93, 2-((2′,4′,6′-trimethylbiphenyl-4-yl)carbonyl)-2,5-diazaspiro[3.4]octan-6-one] was 82%.
Next, `O=C1CCC2(CN(C(=O)c3ccc(-c4cccc5c4OCC5)cc3)C2)N1` [Example 94, 2-(4-(2,3-dihydro-1-benzofuran-7-yl)benzoyl)-2,5-diazaspiro[3.4]octan-6-one]: 93%; `O=C1CCC2(CN(C(=O)c3ccc(-c4ccc5c(c4)CCO5)cc3)C2)N1` [Example 95, 2-(4-(2,3-dihydro-1-benzofuran-5-yl)benzoyl)-2,5-diazaspiro[3.4]octan-6-one]: 94%.
The value for `O=C1CCC2(CN(C(=O)N3CCC(Cc4ccccc4F)CC3)C2)N1` [Example 96, 2-((4-(2-fluorobenzyl)piperidin-1-yl)carbonyl)-2,5-diazaspiro[3.4]octan-6-one] was 101%; that for `O=C1CCC2(CN(C(=O)N3CCC(F)(Cc4ccc(F)cc4)CC3)C2)N1` [Example 97, 2-((4-fluoro-4-(4-fluorobenzyl)piperidin-1-yl)carbonyl)-2,5-diazaspiro[3.4]octan-6-one] was 96%.
Consider `O=C1CCC2(CN(C(=O)N3CCC(Cc4ccc(F)cc4F)CC3)C2)N1` [Example 98, 2-((4-(2,4-difluorobenzyl)piperidin-1-yl)carbonyl)-2,5-diazaspiro[3.4]octan-6-one], for which the inhibition at 10 µM stood at 101%.
Next, `O=C1CCC2(CN(C(=O)N3CCC(Cc4ccc(Cl)cc4)CC3)C2)N1` [Example 99, 2-((4-(4-chlorobenzyl)piperidin-1-yl)carbonyl)-2,5-diazaspiro[3.4]octan-6-one]: 100%; `O=C1CCC2(CN(C(=O)N3CCC(Cc4cccc(Cl)c4)CC3)C2)N1` [Example 100, 2-((4-(3-chlorobenzy)lpiperidin-1-yl)carbonyl)-2,5-diazaspiro[3.4]octan-6-one]: 102%.
The value for `O=C1CCC2(CN(C(=O)N3CCC(Cc4ccccc4Cl)CC3)C2)N1` [Example 101, 2-((4-(2-chlorobenzyl)piperidin-1-yl)carbonyl)-2,5-diazaspiro[3.4]octan-6-one] was 99%.
Take `O=C1CCC2(CN(C(=O)N3CCC(Cc4ccc(Cl)cc4Cl)CC3)C2)N1` [Example 102, 2-((4-(2,4-dichlorobenzyl)piperidin-1-yl)carbonyl)-2,5-diazaspiro[3.4]octan-6-one]: the inhibition at 10 µM worked out at 102%.
Next, `O=C1CCC2(CN(C(=O)N3CCC(Cc4ccc(Cl)c(Cl)c4)CC3)C2)N1` [Example 103, 2-((4-(3,4-dichlorobenzyl)piperidin-1-yl)carbonyl)-2,5-diazaspiro[3.4]octan-6-one]: 103%.
The value for `Cc1cc(Cl)ccc1CC1CCN(C(=O)N2CC3(CCC(=O)N3)C2)CC1` [Example 104, 2-((4-(4-chloro-2-methylbenzyl)piperidin-1-yl)carbonyl)-2,5-diazaspiro[3.4]octan-6-one] was 98%; that for `O=C1CCC2(CN(C(=O)N3CCC(Cc4ccc(Cl)cc4C(F)(F)F)CC3)C2)N1` [Example 105, 2-((4-(4-chloro-2-(trifluoromethyl)benzyl)piperidin-1-yl)carbonyl)-2,5-diazaspiro[3.4]octan-6-one] was 102%.
The value for `O=C1CCC2(CN(C(=O)N3CCC(Cc4ccc(C(F)(F)F)cc4)CC3)C2)N1` [Example 106, 2-((4-(4-(trifluoromethyl)benzyl)piperidin-1-yl)carbonyl)-2,5-diazaspiro[3.4]octan-6-one] was 101%; that for `O=C1CCC2(CN(C(=O)N3CCC(Cc4ccc(C(F)(F)F)cc4Cl)CC3)C2)N1` [Example 107, 2-((4-(2-chloro-4-(trifluoromethyl)benzyl)piperidin-1-yl)carbonyl)-2,5-diazaspiro[3.4]octan-6-one] was 98%.
As to `O=C1CCC2(CN(C(=O)N3CCC(Cc4cc(C(F)(F)F)cc(C(F)(F)F)c4)CC3)C2)N1` [Example 108, 2-((4-(3,5-bis(trifluoromethyl)benzyl)piperidin-1-yl)carbonyl)-2,5-diazaspiro[3.4]octan-6-one], the inhibition at 10 µM came out at 104%.
As to `COC(=O)c1ccc(-c2ccc(CC3CCN(C(=O)N4CC5(CCC(=O)N5)C4)CC3)cc2)cc1` [Example 109, methyl 4′-((1-((6-oxo-2,5-diazaspiro[3.4]oct-2-yl)carbonyl)piperidin-4-yl)methyl)biphenyl-4-carboxylate], the inhibition at 10 µM turned out to be 98%.
The value for `COC(=O)c1cccc(-c2ccc(CC3CCN(C(=O)N4CC5(CCC(=O)N5)C4)CC3)cc2)c1` [Example 110, methyl 4′-((1-((6-oxo-2,5-diazaspiro[3.4]oct-2-yl)carbonyl)piperidin-4-yl)methyl)biphenyl-3-carboxylate] was 101%; that for `O=C1CCC2(CN(C(=O)N3CCC(Cc4ccc(N5CCCCC5)cc4)CC3)C2)N1` [Example 111, 2-((4-(4-(piperidin-1-yl)benzyl)piperidin-1-yl)carbonyl)-2,5-diazaspiro[3.4]octan-6-one] was 101%; that for `O=C1CCC2(CN(C(=O)N3CCC(C(c4ccccc4)c4ccccc4)CC3)C2)N1` [Example 112, 2-((4-(diphenylmethyl)piperidin-1-yl)carbonyl)-2,5-diazaspiro[3.4]octan-6-one] was 101%.
For the compound `O=C1CCC2(CN(C(=O)N3CCN(C(c4ccc(F)cc4)c4ccc(F)cc4)CC3)C2)N1` [Example 113, 2-((4-(bis(4-fluorophenyl)methyl)piperazin-1-yl)carbonyl)-2,5-diazaspiro[3.4]octan-6-one], the inhibition at 10 µM was determined as 101%.
